Experimental data: US12410147B2, “Surfactants” (Imperial College Innovations Limited, priority 2020, dated 2025)
Values belong to the compound of their own block, whether it stands above or below them.

Legend:
zein protein = assay: Zein solubilisation study; conditions: 2 g zein, 40 ml of 0.5 wt % surfactant solution, 40° C., 12 h
Experimental: The applicability of surfactants in personal care products was studied by analysing their capacity to solubilise zein protein. In each test 2 g of zein protein was mixed with 40 ml of 0.5 wt % surfactant solution and the mixture was incubated at 40° C. for 12 h. The mixture was then centrifuged and the remaining solid zein was washed with 50 mL of water 5 times. The solid zein was dried for in an oven at 70° C. for 5 days and weighted. The zein solubilisation was evaluated as percentage of zein that was dissolved into the surfactant solution.

[1] = Solubility study in water (ISO standard 6839); assay type: physicochemical; conditions: for solubility in water (concentration solubilized): room temperature
Experimental: 10 ml of solution was poured into a 20 ml vial and allowed to cool until precipitation was observed. Other 10 ml of solution was poured into a 20 ml vial and kept at a higher temperature. The precipitated sample was slowly heated and the clear sample was slowly cooled. The temperature at which an appearance change occurred was considered the temperature of solubility at a specific surfactant concentration.

[2] = Surface tension in octanol-water-surfactant system, drop volume method (ISO 9101 modified); assay type: physicochemical
Excerpt: The drop volume method was used to calculate the surface tension in the system following the ISO standard 9101 with some modifications. In each experiment a drop of aqueous solution of surfactant was slowly formed in the tip of a needle (d=1.82 mm) submerged in octanol using a syringe connected at a Krüss DSA25 drop shape analyser instrument. The drop formation was allowed to grow as close as possible the maximum volume at which it would detach from the needle. At this point, the drop was left to stabilize for 2 minutes and then was detached from the needle by providing a small amount of additional solution. A photo of the drop leaving the needle was captured using the camera connected to the Krüss DSA25. The diameter of the drop was measured, and the surface tension was calculated using the following equation: […]
Where γ is the surface tension (mN/m), V is the drop volume (cm^3), Δρ is the difference of density between water and octanol (g/cm^3), g is the acceleration due to gravity (cm/s^2), d is the outer diameter of the needle (cm), and f is a correction factor calculated using the following equation: […]
Surface tension at concentration 2 times the CMC in deionised water (prepared using a Milli-Q system (Merck)) are summarized in Table 6. […] In FIG. 2 the drops formation of a water/surfactant solution in octanol have been reported for the SAF-8, SAF-12 and SDBS at a concentration of surfactant double of the CMC. The SAF-8 show the lower surface tension due mostly to the high concentration of surfactant used ([…]).
SAF-8 was evaluated using a concentration 2 times the CMC, while SAF-12 was evaluated at 2, 4 and 8 times the CMC.

[3] = test system: E. coli in expressing the b-galactosidase; assay type: cell-based; conditions: 37° C., 30 min, OD 600 nm
Experimental: The toxicity of different surfactants was analysed using a Toxi-Chromo test kit supplied by EBPI to quantify the inhibition of E. coli in expressing the b-galactosidase in the presence of the surfactants. Using the standard protocol, a mother solution containing 1000 ppm of a surfactant was prepared. The bacteria inoculum was mixed with a reaction mixture, nutrients supplied with the kit and the toxicant. A further 15 samples at containing different amounts of the surfactant were prepared in the well plate through subsequent dilutions. The chromogen supplied with the kit was added in each well and the well plate was then incubated at 37° C. for 30 min. The optical density (OD) was read at 600 nm using a plate reader. The % inhibition was measured by the OD variation (which is associated a blue colour development). EC50 was measured by plotting and fitting the % inhibition and surfactant concentration.

[4] = Resistance to hard water (ISO standard 1063); assay type: physicochemical; conditions: for appearance of the solutions in hard water stability tests (in words): all calcium concentrations; for Mean Stability: class from total score according to Table 3; for Total Score: sum of 15 appearance scores, CaCl2 6, 9 and 12 m equivalent Ca/L, five aliquots of 50 mg/ml mother solution
Experimental: These measurements were made according the standard protocol reported in ISO standard 1063. Calcium chloride was used as cation source at concentrations of 6, 9 and 12 m equivalent Ca/L (3.0, 4.5, 6.0 mM). A mother solution of surfactant with 50 mg/ml concentration was prepared in water at 20° C. In a 50 ml falcon-tube, a defined aliquot of mother solution was transferred and diluted up to 50 ml with the calcium solution. Five different aliquots of surfactant mother solution were tested: 5.0, 2.5, 1.2, 0.6 and 0.3 ml. In every test, the appearance of the sample was inspected and assigned a score according to Table 2. The scores of the 15 tests for each surfactant were summed and the final result was expressed as mean stability according to Table 3.
• Opalescent is a solution not clear but which objects can be seen. Cloudy is a solution not clear which objects cannot be seen through.

[5] = Critical micelle concentration, air-water-surfactant system, pendant drop method; assay type: physicochemical; conditions: 25° C., deionised water
Experimental: Concentrations that were evaluated for each surfactant varied depending on the solubility of the surfactant and the surface tension reduction observed during the analysis. The experiment was performed at 25° C. Deionised water (prepared using a Milli-Q system (Merck)) was used for each experiment. The pendant drop method was used to calculate the surface tension by using a Krüss DSA25. A drop of the solution was produced in the tip of a blunt metal needle (1.25 mm) until the drop reached its maximum size. After 10-15 seconds of equilibration, an image of the drop was captured using a digital camera. The drop was analyzed using the software Krüss EasyDrop Standard-Drop Shape Analysis (DSA1) v 1.92. The software uses the Young-Laplace equation to calculate the surface tension according to the drop deformation considering the effect of gravity and hydrostatic pressure. Critical micellar concentration (CMC) was obtained after plotting surface tension vs surfactant concentration. The CMC is calculated as the surfactant concentration where the initial straight line intersects the plateau in the graph.

[6] = Foaming capacity (ISO 6964 with modifications); assay type: physicochemical; conditions: 0.2% surfactant, 50° C., after 5 minutes; for Foam height, hard water: 200 ppm CaCl2
Experimental: Foaming capacity was evaluated following the protocol set out in ISO 6964, with some modifications. In each test, 700 mL of surfactant solution containing 0.2% surfactant was prepared using deionized water or a hard water solution of distilled water with 200 ppm of CaCl2. The solutions were prepared by agitating the components for 60 minutes at 50° C. After 60 minutes, 50 mL of solution was poured in a 1000 mL glass measuring cylinder, which was then placed in a water bath that was heated to 50° C. 600 mL of the surfactant solution was poured into a chromatography column fitted with a stainless-steel needle at the egress. The column was placed over the measuring cylinder so that the tip of the needle was […] from the surfactant solution in the measuring cylinder. 450 mL of surfactant solution were poured from the column into the measuring cylinder. After pouring the solution, foam height was measured at 30 sec, 3 min, 5 min and 15 min.

protozoa microorganisms = assay type: cell-based; conditions: 30° C., 24 h, OD 440 nm
Experimental: The toxicity of different surfactants was analysed using a Protoxkit supplied by microbiotests quantify the inhibition of growth of protozoa microorganisms in the presence of the surfactants. Using the standard protocol, a dilution series of toxicant was prepared by serial 1:1 dilution with distilled water. 2 mL of each solution is placed in a UV cuvette. An inoculum of Protozoa was diluted to reach an OD of 0.04 at 440 nm then 40 μL of inoculum was added along a solution of 40 μL of nutrients in each dilution vials. The initial OD was measured for each vial and the vial was then incubated at 30° C. for 24 h. Inhibition was measured by the comparing the variation of initial and final OD.

[7] = surfactant concentration 12.5 % weight in water
[8] = surfactant concentration 15 % weight in water
[9] = surfactant concentration 17.5 % weight in water
[10] = surfactant concentration 20 % weight in water
[11] = surfactant concentration 22.5 % weight in water
[12] = deionised water in octanol, concentration 2 times the CMC
[13] = hard water (500 ppm CaCl2) in octanol, 2 times the CMC

Compound: CCCCCCCCOC(=O)c1ccc(S(=O)(=O)O)o1 [SAF-8, Sulfonated Octyl Furoate]
% of zein dissolved (zein protein): 10.4 ± 0.98%
solubility in water (concentration solubilized) [1]: up to 140%
temperature at which dissolution was observed [1, 7]: <0 °C
temperature at which dissolution was observed [1, 8]: <0 °C
temperature at which dissolution was observed [1, 9]: <0 °C
temperature at which dissolution was observed [1, 10]: <0 °C
temperature at which dissolution was observed [1, 11]: <0 °C
Surface tension [2, 12]: 2.65 mN/m
Surface tension [2, 13]: 1.91 ± 0.25 mN/m
EC50, inhibition of E. coli in expressing the b-galactosidase [3]: 292 ± 13 ppm
appearance of the solutions in hard water stability tests (in words) [4]: remained clear
Mean Stability [4]: 5 (75)
Total Score [4]: 75
CMC [5]: 1330 ppm
Foam height, hard water [6]: 5 ± 0.5 mm
Foam height, distilled water [6]: 2.5 ± 0.7 mm
EC50, inhibition of growth of protozoa microorganisms (protozoa microorganisms): 673 ± 10 ppm

Compound: CCCCCCCCCCCCOC(=O)c1ccc(S(=O)(=O)O)o1 [SAF-12, Sulfonated Dodecyl Furoate]
% of zein dissolved (zein protein): 15.3 ± 0.26%
temperature below which the surfactant would precipitate ([1]; 20% solution): below 20 °C
solubility in water (concentration soluble) ([1]; 24° C.): 20%
temperature at which dissolution was observed [1, 7]: 20-25 °C
temperature at which dissolution was observed [1, 8]: 20-25 °C
temperature at which dissolution was observed [1, 9]: 20-25 °C
temperature at which dissolution was observed [1, 10]: 20-25 °C
temperature at which dissolution was observed [1, 11]: <0 °C
Surface tension [2, 12]: 3.42 mN/m
Surface tension [2, 13]: 4.51 ± 0.5 mN/m
Surface tension ([2]; hard water (500 ppm CaCl2) in octanol, 4 times the CMC): 3.78 ± 0.45 mN/m
Surface tension ([2]; hard water (500 ppm CaCl2) in octanol, 8 times the CMC): 1.99 ± 0.27 mN/m
EC50, inhibition of E. coli in expressing the b-galactosidase [3]: 63.5 ± 2.8 ppm
appearance of the solutions in hard water stability tests (in words) [4]: remained clear
Mean Stability [4]: 5 (75)
Total Score [4]: 75
CMC [5]: 521 ppm
Foam height, hard water [6]: 10.35 ± 0.5 mm
Foam height, distilled water [6]: 7.8 ± 0.4 mm
EC50, inhibition of growth of protozoa microorganisms (protozoa microorganisms): 49.65 ± 5 ppm

solubility in water (in words) ([1]; comparison of surfactants): very low solubility
solubility in water (concentration solubilized) [1]: 0.05%
temperature at which dissolution was observed [1, 7]: >50 °C
temperature at which dissolution was observed [1, 8]: >50 °C
temperature at which dissolution was observed [1, 9]: >50 °C
temperature at which dissolution was observed [1, 10]: >50 °C
temperature at which dissolution was observed [1, 11]: >50 °C
CMC [5]: 60 ppm
Compound: CCCCCCCCCCCCCCCCOC(=O)c1ccc(S(=O)(=O)O)o1 [SAF-16, Sulfonated Hexadecyl Furoate]

Compound: CCCCCCCCCCCCOS(=O)(=O)[O-].[Na+] [SDS, sodium dodecyl sulfate, reference compound]
Surface tension [2, 12]: 1.34 ± 0.28 mN/m
behaviour in hard water (in words) ([2]; hard water (500 ppm CaCl2)): significant agglomeration
EC50, inhibition of E. coli in expressing the b-galactosidase [3]: 123.7 ± 5.2 ppm
appearance of the solutions in hard water stability tests (in words) [4]: extensive precipitation in many tests
Mean Stability [4]: 2 (19-37)
Total Score [4]: 21
Foam height, hard water [6]: 4.25 ± 0.4 mm
Foam height, distilled water [6]: 7.25 ± 0.4 mm
EC50, inhibition of growth of protozoa microorganisms (protozoa microorganisms): 85.71 ± 3.8 ppm
